From ChEMBL document CHEMBL5715954, “Silencing c-Myc translation as a therapeutic strategy through targeting PI3Kδ and CK1ε in hematological malignancies” (Blood, 2017)
Activity calls are given as the source filed them. The calls are words filed in the database; no cut-off is given here.

Key:
[1] = target: T1, Casein kinase I isoform epsilon (Homo sapiens, UniProt P49674); assay: Inhibition of recombinant human full-length N-terminal GST-tagged CK1epsilon expressed in baculovirus infected Sf9 insect cells at 50 uM using casein as substrate measured after 60 mins by ADP-glo kinase assay relative to control
Target sequence in this assay (P49674 whole entry, looked up, canonical isoform): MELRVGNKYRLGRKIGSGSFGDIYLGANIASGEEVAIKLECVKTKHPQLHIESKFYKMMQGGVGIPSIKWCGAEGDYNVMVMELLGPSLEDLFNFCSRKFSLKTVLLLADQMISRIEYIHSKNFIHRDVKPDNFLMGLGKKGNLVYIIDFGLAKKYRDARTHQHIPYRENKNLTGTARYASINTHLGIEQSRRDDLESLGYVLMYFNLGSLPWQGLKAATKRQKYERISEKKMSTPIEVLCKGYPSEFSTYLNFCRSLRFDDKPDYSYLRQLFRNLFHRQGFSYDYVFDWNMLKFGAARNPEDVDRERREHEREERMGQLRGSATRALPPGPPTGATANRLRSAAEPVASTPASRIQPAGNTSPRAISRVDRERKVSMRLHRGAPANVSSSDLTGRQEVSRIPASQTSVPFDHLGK

[2] = target: T1, Casein kinase I isoform epsilon; assay: Inhibition of recombinant human full-length N-terminal GST-tagged CK1epsilon expressed in baculovirus infected Sf9 insect cells using casein as substrate measured after 60 mins by ADP-glo kinase assay
Target sequence in this assay (P49674 whole entry, canonical isoform): as the sequence (P49674 whole entry, looked up, canonical isoform) above

[3] = target: T1, Casein kinase I isoform epsilon; assay: Inhibition of CK1epsilon in human LY7 cells assessed as reduction in CK1epsilon autophosphorylation at 10 to 25 uM preincubated for 1 hr followed by addition of PP2A inhibitor calyculin A and measured after 15 to 60 mins by Western blot analysis; type: cell-based; settings: dose 10-25 µM, time lower 75.0 min, time upper […]
Target sequence in this assay (P49674 whole entry, looked up, canonical isoform): as above

[4] = target: Myc proto-oncogene protein (Homo sapiens) (UniProt P01106); assay: Inhibition of c-Myc in human LY7 cells assessed as reduction in E2F1 expression at 5 nM incubated for 24 hrs by Western blot analysis; type: cell-based
Chain of Myc proto-oncogene protein (Homo sapiens) (P01106 whole entry, canonical isoform): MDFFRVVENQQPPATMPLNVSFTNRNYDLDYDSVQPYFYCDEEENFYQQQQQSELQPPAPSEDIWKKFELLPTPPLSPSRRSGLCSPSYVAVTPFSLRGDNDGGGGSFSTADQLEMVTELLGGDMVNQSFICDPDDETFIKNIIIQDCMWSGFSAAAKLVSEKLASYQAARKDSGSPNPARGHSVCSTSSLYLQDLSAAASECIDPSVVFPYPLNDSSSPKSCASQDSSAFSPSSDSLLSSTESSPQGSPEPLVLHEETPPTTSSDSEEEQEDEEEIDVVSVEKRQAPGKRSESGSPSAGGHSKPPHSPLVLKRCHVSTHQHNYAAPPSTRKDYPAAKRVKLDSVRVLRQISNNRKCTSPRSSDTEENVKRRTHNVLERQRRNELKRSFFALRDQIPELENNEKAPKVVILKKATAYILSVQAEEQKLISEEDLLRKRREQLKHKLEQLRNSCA

[5] = target: Myc proto-oncogene protein (Homo sapiens) (UniProt P01106); assay: Inhibition of c-Myc in human LY7 cells assessed as reduction in eIF4B expression at 5 nM incubated for 24 hrs by Western blot analysis; type: cell-based
[6] = target: Myc proto-oncogene protein (Homo sapiens) (UniProt P01106); assay: Inhibition of c-Myc in human LY10 cells assessed as reduction in E2F1 expression at 2 nM incubated for 24 hrs by Western blot analysis; type: cell-based
[7] = target: Myc proto-oncogene protein (Homo sapiens) (UniProt P01106); assay: Inhibition of c-Myc in human LY10 cells assessed as reduction in eIF4B expression at 2 nM incubated for 24 hrs by Western blot analysis; type: cell-based
[8] = target: T1, Casein kinase I isoform epsilon; assay: Inhibition of CK1epsilon in human OCILY7 cells transfected with c-myc-5'-UTR-luciferase construct assessed as reduction in c-myc translation at 15 uM incubated for 24 hrs by luciferase reporter gene assay; type: cell-based
Target sequence in this assay (P49674 whole entry, looked up, canonical isoform): as the sequence (P49674 whole entry, looked up, canonical isoform) above

[9] = target: T1, Casein kinase I isoform epsilon; assay: Inhibition of CK1epsilon in human LY7 cells assessed as reduction in 4E-BP1 phosphorylation at 25 uM incubated for 24 hrs in presence of […] inhibitor PF4800567 by Western blot analysis; type: cell-based
Target sequence in this assay (P49674 whole entry, looked up, canonical isoform): as above

[10] = target: T1, Casein kinase I isoform epsilon; assay: Inhibition of CK1epsilon in human LY7 cells assessed as reduction in c-Myc expression at 25 uM incubated for 24 hrs in presence of […] inhibitor PF4800567 by Western blot analysis; type: cell-based
Target sequence in this assay (P49674 whole entry, looked up, canonical isoform): as above

[11] = target: T1, Casein kinase I isoform epsilon; assay: Inhibition of CK1epsilon in human LY7 cells assessed as reduction in CK1epsilon autophosphorylation at 1 uM preincubated for 1 hr followed by addition of PP2A inhibitor calyculin A and measured after 15 to 60 mins by Western blot analysis; type: cell-based; settings: time lower 75.0 min, time upper […]
Target sequence in this assay (P49674 whole entry, looked up, canonical isoform): as above

[12] = target: T1, Casein kinase I isoform epsilon; assay: Inhibition of CK1epsilon in human LY7 cells assessed as reduction in c-Myc expression at 15 to 50 uM measured after 24 hrs by Western blot analysis; type: cell-based; settings: dose 15-50 µM
[13] = target: Serine/threonine-protein phosphatase 2A catalytic subunit alpha isoform (Homo sapiens) (UniProt P67775); assay: Inhibition of PP2A in human LY7 cells assessed as increase in CK1epsilon autophosphorylation by Western blot analysis; type: cell-based; settings: time lower […], time upper 30.0 min
Chain of Serine/threonine-protein phosphatase 2A catalytic subunit alpha isoform (Homo sapiens) (P67775 whole entry, canonical isoform): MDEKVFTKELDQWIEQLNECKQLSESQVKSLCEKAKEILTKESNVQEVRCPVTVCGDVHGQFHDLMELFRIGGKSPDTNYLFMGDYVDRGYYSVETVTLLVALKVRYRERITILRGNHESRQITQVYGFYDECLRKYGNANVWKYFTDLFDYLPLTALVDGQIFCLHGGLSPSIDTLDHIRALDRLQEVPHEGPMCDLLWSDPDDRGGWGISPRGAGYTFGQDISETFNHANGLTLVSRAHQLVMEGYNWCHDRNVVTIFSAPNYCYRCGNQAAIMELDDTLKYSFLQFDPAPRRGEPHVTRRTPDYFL

Row | Compound | EC50 [2] [µM] | inhibition [4] | inhibition [5] | inhibition [6] | inhibition [7] | further results
1 | CC[C@@H](c1nc2cccc(F)c2c(=O)n1-c1ccccc1)n1nc(-c2ccc(OC(C)C)c(F)c2)c2c(N)ncnc21 | 81.2 |  |  |  |  | inhibition [1]: < 50%
2 | CC(C)Oc1ccc(-c2nn([C@@H](C)c3nc4cccc(F)c4c(=O)n3-c3ccccc3)c3ncnc(N)c23)cc1F | 9.36 |  |  |  |  | inhibition [3]: Active
3 | CC(C)C[C@H](NC(=O)[C@H](CCc1ccccc1)NC(=O)CN1CCOCC1)C(=O)N[C@@H](Cc1ccccc1)C(=O)N[C@@H](CC(C)C)C(=O)[C@@]1(C)CO1 |  | inactive | inactive | inactive | inactive | 
4 | Nc1ncnc2c1c(COc1cccc(Cl)c1)nn2C1CCOCC1 | 0.0074 |  |  |  |  | inhibition [8]: inactive; inhibition [9]: Active; inhibition [10]: Active; inhibition [11]: Active; inhibition [12]: Active
5 | CC(C)C[C@H](NC(=O)[C@H](Cc1ccccc1)NC(=O)c1cnccn1)B(O)O |  | inactive | inactive | inactive | inactive | 
6 | COC[C@@H]([C@H](O)[C@H](O)C(=O)NCC[C@H](C)c1nc(/C=C/C[C@@H]2O[C@]3(C[C@@H](O)[C@@H]2C)O[C@H]([C@H](C[C@H](O)[C@H](C)[C@H](O)[C@H](C)/C=C(C)/C(C)=C/C=C/C(C)=C\C#N)OC)[C@H](OP(=O)(O)O)C3(C)C)co1)N(C)C |  |  |  |  |  | inhibition [13]: Dose-Dependent Effect
